{"source": "patent US20130230609A1", "about": "“ANTIMICROBIAL/PRESERVATIVE COMPOSITIONS COMPRISING BOTANICALS” (priority 2012, published 2013)", "origin": "cited, not measured here", "data": [{"substance": "zinc glycerate", "values": [{"measurement": "water solubility (in words)", "value": "moderately water soluble"}]}, {"substance": "zinc picolinate", "values": [{"measurement": "water solubility (in words)", "value": "moderately water soluble"}]}]}
